Values quoted from earlier work, collected in patent US7968545B2 (priority 2003, dated 2011).

Key:
[1] = human, in vivo
[2] = in vivo
[3] = in vivo; remark: listed apart in the source

Compound: NCC1(CC(=O)O)CCCCC1 [Gabapentin]
- share of patients in whom it works [1]: 60%

Compound: CSCC[C@@H]1NC(=O)[C@H](CC(C)C)NC(=O)[C@H](CCCNC(=N)N)NC(=O)[C@H](CO)NC(=O)[C@@H]2CSSC[C@@H]3NC(=O)[C@H](CO)NC(=O)CNC(=O)[C@H]([C@@H](C)O)NC(=O)[C@H](CSSC[C@H](N)C(=O)N[C@@H](CCCCN)C(=O)NCC(=O)N[C@@H](CCCCN)C(=O)NCC(=O)N[C@@H](C)C(=O)N[C@@H](CCCCN)C(=O)N2)NC(=O)[C@H](CSSC[C@@H](C(N)=O)NC(=O)[C@H](CCCCN)NC(=O)CNC(=O)[C@H](CO)NC(=O)[C@H](CCCNC(=N)N)NC3=O)NC(=O)[C@H](CC(=O)O)NC(=O)[C@H](Cc2ccc(O)cc2)NC1=O [Ziconotide, ω-conotoxin-MVIIA]
- reduction of infarct size [2]: effective in reducing infarct size
- success rate for the treatment of pain [3]: 85%
